From BindingDB's records for patent US12202839 (University of Virginia Patent Foundation, 2025) come the findings set out here.

The structures appear in SMILES notation.

For this assay, the target named is Protein tyrosine phosphatase type IVA 3 (Homo sapiens, UniProt O75365). As to the kind of experiment: PTP4A3 Enzymatic Assay.

What is called IC50 is the concentration needed to halve the response being measured. A lower IC50 goes with greater potency.

Sequence of Protein tyrosine phosphatase type IVA 3 (O75365 whole entry): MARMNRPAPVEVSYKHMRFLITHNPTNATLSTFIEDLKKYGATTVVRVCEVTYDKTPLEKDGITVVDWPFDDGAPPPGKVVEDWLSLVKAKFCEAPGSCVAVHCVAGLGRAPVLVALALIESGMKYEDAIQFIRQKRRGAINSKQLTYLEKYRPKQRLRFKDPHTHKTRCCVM

Compound `O=C1NC(=O)c2sc(-c3ccccc3)cc2C1=O` [US12202839, Compound 15] registered an IC50 of 162 nM.
